Laboratory results: patent publication US7345081B2, “Azabicyclo-octane inhibitors of IAP” (Genentech, Inc., priority 2004, dated 2008)

What was measured:
MLXBIR3SG [1] = biological target: T1, MLXBIR3SG (Homo sapiens, UniProt Q96CA5, S150G); experiment: TR-FRET peptide binding assay; conditions: TR-FRET competition; 300 nM his-tagged MLXBIR3SG, 200 nM biotinylated SMAC peptide (AVPI)
T1 sequence (Q96CA5 with tags, fused parts or gaps S150G): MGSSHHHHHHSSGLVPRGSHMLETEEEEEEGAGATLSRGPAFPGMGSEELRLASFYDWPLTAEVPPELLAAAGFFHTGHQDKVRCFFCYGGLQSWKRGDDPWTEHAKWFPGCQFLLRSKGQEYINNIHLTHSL
Protocol: The improved caspase-9 inhibition of the chimeric BIR domain MLXBIR3SG has been correlated with increased inhibition of doxorubicin-induced apoptosis when transfected into MCF7 cells. TR-FRET Peptide Binding Assay Time-Resolved Fluorescence Resonance Energy Transfer competition experiments were performed on the Wallac Victor2 Multilabeled Counter Reader (Perkin Elmer Life and Analytical Sciences, Inc.) according to the procedures of Kolb et al (Journal of Biomolecular Screening, 1996, 1(4):203). A reagent cocktail containing 300 nM his-tagged MLXBIR3SG; 200 nM biotinylated SMAC peptide (AVPI); 5 μg/mL anti-his allophycocyanin (XL665) (CISBio International); and 200 ng/mL streptavidin-europium (Perkin Elmer) was prepared in reagent buffer (50 mM Tris [pH 7.2], 120 mM NaCl, 0.1% bovine globulins, 5 mM DTT and 0.05% octylglucoside). […] The reagent cocktail was incubated at room temperature for 30 minutes. […] After a 90 minute incubation at room temperature, the fluorescence was read with filters for the excitation of europium (340 nm) and for the emission wavelengths of europium (615 nm) and a allophycocyanin (665 nm). Antagonist data were calculated as a ratio of the emission signal of allophycocyanin at 665 nm to that of the emission of europium at 615 nm (these ratios were multiplied by a factor of 10,000 for ease of data manipulation). The resulting values were plotted as a function of antagonist concentration and fit to a 4-parameter equation using Kaleidograph software (Synergy Software, Reading, Pa.). Indications of antagonist potency were determined from the IC50 values.

MLXBIR3SG [2] = biological target: T1, MLXBIR3SG; experiment: Fluorescence polarization peptide binding assay; conditions: fluorescence polarization competition; for Ki: Ki determined from the IC50 values; for IC50: MLXBIR3SG at 30 nM, 5 nM AVP-diPhe-FAM probe
Protocol: The improved caspase-9 inhibition of the chimeric BIR domain MLXBIR3SG has been correlated with increased inhibition of doxorubicin-induced apoptosis when transfected into MCF7 cells. Fluorescence Polarization Peptide Binding Assay Polarization experiments were performed on an Analyst HT 96-384 (Molecular Devices Corp.) according to the procedure of […]., Zioncheck, K., Clark, K., Arellano, F., and Bodary., S.(2000) in Proceedings of SPIE : In Vitro Diagnostic Instrumentation (Cohn, G. E., Ed.) pp 128-137, Bellingham, Wash. […] Fluorescence values were plotted as a function of the protein concentration, and the IC50s were obtained by fitting the data to a 4-parameter equation using Kaleidograph software (Synergy software, Reading, Pa.). […] Samples were read after a 10-minute incubation. Fluorescence polarization values were plotted as a function of the antagonist concentration, and the IC50 values were obtained by fitting the data to a 4-parameter equation using Kaleidograph software (Synergy software, Reading, Pa.). Inhibition constants (Ki) for the antagonists were determined from the IC50 values.

IC50 (MLXBIR3SG [1]) | Ki (MLXBIR3SG [2]) | IC50 (MLXBIR3SG [2]) | Compound
< 10 µM |  |  | CN[C@@H](C)C(=O)N[C@H](C(=O)N1CCC2CCC(NC(=O)C3COc4ccccc43)C21)C(C)(C)C (stereo partly drawn) [Compound 3]
< 10 µM | < 0.2 µM | < 1 µM | CN[C@@H](C)C(=O)N[C@H](C(=O)N1CCC2CCC(NC(=O)C(c3ccccc3)c3ccc(F)cc3)C21)C(C)(C)C (stereo partly drawn) [Compound 4]
< 10 µM |  |  | COc1ccc2ccccc2c1C(=O)NC1CCC2CCN(C(=O)C(NC(=O)C(C)N)C(C)C)C21 (stereo not drawn) [Compound 5]
< 10 µM | < 0.2 µM | < 1 µM | CN[C@@H](C)C(=O)N[C@H](C(=O)N1CCC2CCC(NC(=O)c3ccc(C)c4ccccc34)C21)C(C)(C)C (stereo partly drawn) [Compound 6]
< 10 µM |  |  | CNC(C)C(=O)NC(C(=O)N1CCC2CCC(NC(=O)C(c3ccccc3)c3ccccc3)C21)C(C)(C)C (stereo not drawn) [Compound 9]
< 10 µM |  |  | CN[C@@H](C)C(=O)N[C@H](C(=O)N1CCC2CCC(NC(=O)c3coc4ccccc34)C21)C(C)(C)C (stereo partly drawn) [Compound 11]
< 10 µM | < 0.2 µM | < 1 µM | CN[C@@H](C)C(=O)N[C@H](C(=O)N1CCC2CCC(NC(=O)c3c(OC)ccc4ccccc34)C21)C(C)(C)C (stereo partly drawn) [Compound 12]
< 10 µM |  |  | C[C@H](N)C(=O)N[C@H](C(=O)N1CCC2CCC(NC(=O)c3cccc4ccccc34)C21)C(C)(C)C (stereo partly drawn) [Compound 13]
< 10 µM |  |  | CN[C@@H](C)C(=O)N[C@H](C(=O)N1CCC2CCC(NC(=O)c3ccccc3)C21)C(C)(C)C (stereo partly drawn) [Compound 14]
< 10 µM | < 0.2 µM | < 1 µM | CN[C@@H](C)C(=O)N[C@H](C(=O)N1CCC2CCC(NC(=O)c3csc4ccccc34)C21)C(C)(C)C (stereo partly drawn) [Compound 16]
< 10 µM |  |  | CN[C@@H](C)C(=O)N[C@H](C(=O)N1CCC2CCC(NC(=O)c3cccc4ccccc34)C21)C(C)(C)C (stereo partly drawn) [Compound 21]
< 10 µM |  |  | C[C@H](N)C(=O)N[C@H](C(=O)N1CCC2CCC(NC(=O)C(c3ccccc3)c3ccccc3)C21)C(C)(C)C (stereo partly drawn) [Compound 22]
< 10 µM | < 0.2 µM | < 1 µM | CN[C@@H](C)C(=O)N[C@H](C(=O)N1CCC2CCC(NC(=O)c3ccc(F)c4ccccc34)C21)C(C)(C)C (stereo partly drawn) [Compound 24]
< 10 µM |  |  | CN[C@@H](C)C(=O)N[C@H](C(=O)N1CCC2CCC(NC(=O)c3cccc4ccccc34)C21)C1CCCCC1 (stereo partly drawn) [Compound 28]
